From patent US20050009903A1, “CB2-selective cannabinoid analogues” (priority 2003, published 2005)

Experiments:
[1] = target: T1, CB1 receptor (Rattus norvegicus, UniProt P20272); conditions: previously reported by the applicants (literature refs); read-out: Ki at CB1 receptor; cited from earlier work
T1 construct: from tissue; host or cells: rat whole brain, P2 membranes

[2] = tested on: mouse model of multiple sclerosis; conditions: cited from earlier work
[3] = tested on: glioma tumors; conditions: cited from earlier work
[4] = target: T2, CB2 receptor (Homo sapiens, UniProt P34972); assay: CB2 assay: displacement of [3H]CP-55,940 from cloned human CB2 receptor preparation (transfected HEK 293 cells); assay type: binding; set-up: expressed in transfected cells; conditions: Table 1; ratio of Ki values
[5] = target: T2, CB2 receptor; assay: [35S]GTPγS binding in human CB2 receptor-expressing CHO cell membranes; assay type: biochemical; set-up: expressed in transfected cells
[6] = target: T2, CB2 receptor; set-up: expressed in transfected cells; conditions: previously reported by the applicants (literature refs); listed as JWH-133; read-out: Ki at CB2 receptor; cited from earlier work
[7] = target: CB1 receptor (Homo sapiens, UniProt P21554); conditions: read-out: Ki CB1 receptor; Hanus et al.; cited from earlier work
[8] = tested on: mouse behavioral tetrad; conditions: cited from earlier work
[9] = blocked by CB2 antagonist SR-144528; cited from earlier work
[10] = blocked by CB2 antagonist SR-144528; cited from earlier work; remark: listed apart in the source

T2 sequence (P34972 whole entry): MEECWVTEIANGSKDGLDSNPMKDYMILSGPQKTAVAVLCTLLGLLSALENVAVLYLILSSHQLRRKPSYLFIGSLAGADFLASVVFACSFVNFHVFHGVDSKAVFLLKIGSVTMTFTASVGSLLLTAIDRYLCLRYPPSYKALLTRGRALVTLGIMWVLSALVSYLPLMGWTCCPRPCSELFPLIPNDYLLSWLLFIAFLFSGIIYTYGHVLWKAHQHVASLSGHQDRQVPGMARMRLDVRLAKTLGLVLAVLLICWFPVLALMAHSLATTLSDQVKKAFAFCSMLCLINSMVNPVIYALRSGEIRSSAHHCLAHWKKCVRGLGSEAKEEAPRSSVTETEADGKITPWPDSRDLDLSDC
T1 sequence (P20272 whole entry): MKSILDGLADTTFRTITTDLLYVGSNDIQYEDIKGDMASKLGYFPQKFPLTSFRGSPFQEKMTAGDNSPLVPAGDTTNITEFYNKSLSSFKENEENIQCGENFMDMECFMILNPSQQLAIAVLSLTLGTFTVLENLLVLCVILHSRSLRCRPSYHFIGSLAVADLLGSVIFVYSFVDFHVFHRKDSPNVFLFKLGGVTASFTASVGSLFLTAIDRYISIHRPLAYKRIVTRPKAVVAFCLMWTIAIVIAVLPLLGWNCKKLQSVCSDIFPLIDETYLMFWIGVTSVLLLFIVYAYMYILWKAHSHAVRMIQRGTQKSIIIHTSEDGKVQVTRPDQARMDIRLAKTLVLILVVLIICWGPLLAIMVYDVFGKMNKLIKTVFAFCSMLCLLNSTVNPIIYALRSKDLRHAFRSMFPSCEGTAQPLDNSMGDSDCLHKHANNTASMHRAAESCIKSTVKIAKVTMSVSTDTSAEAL
Chain of CB1 receptor (Homo sapiens, UniProt P21554) (P21554 whole entry): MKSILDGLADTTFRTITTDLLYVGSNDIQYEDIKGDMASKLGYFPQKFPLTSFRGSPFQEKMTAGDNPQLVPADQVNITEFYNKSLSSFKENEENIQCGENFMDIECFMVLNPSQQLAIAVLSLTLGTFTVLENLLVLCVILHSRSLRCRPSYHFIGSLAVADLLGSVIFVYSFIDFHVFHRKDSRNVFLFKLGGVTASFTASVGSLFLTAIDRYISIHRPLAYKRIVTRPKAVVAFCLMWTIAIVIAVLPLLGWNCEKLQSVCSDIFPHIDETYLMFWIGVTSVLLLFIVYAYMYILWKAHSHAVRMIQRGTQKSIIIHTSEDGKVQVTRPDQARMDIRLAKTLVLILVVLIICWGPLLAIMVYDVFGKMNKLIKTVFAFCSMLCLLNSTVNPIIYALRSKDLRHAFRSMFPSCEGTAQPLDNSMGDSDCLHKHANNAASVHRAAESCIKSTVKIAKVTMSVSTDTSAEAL

Row | SMILES | Ki [1] [nM] | reduction of spasticity [2] | in vivo growth of glioma tumors [3] | Ratio CB1/CB2 [4] | Emax relative to CP-55,940 [5] [%] | Emax (% CP-55940) ([5]; Table 4, mean ± SEM, per cent relative to 3 μM CP-55,940) | efficacy in the [35S]GTPγS assay relative to CP-55,940 ([5]; in words) | EC50 ([5]; read-out: EC50 in the [35S]GTPγS assay) [nM] | Ki [6] [nM] | Ki [7] [nM] | activity in the mouse behavioral tetrad [8] | effect on blood pressure [9] | peripheral analgesic activity [10]
1 | CCCC(C)(C)c1ccc2c(c1)OC(C)(C)C1CC=C(C)CC21 (stereo not shown) [Compound 3, 3-(1′,1′-Dimethylbutyl)-1-deoxy-Δ^8-THC, reference compound] | 677 ± 132 | effective in reducing spasticity | inhibits the in vivo growth of glioma tumors | 199 | 111.5±13.6 | 111.5 ± 13.6 | highly efficacious | 4 ± 1 | 3.4 ± 1 | – | – | – | –
2 | CCCCCCC(C)(C)c1cc(OC)c([C@@H]2C=C(CO)[C@@H]3C[C@H]2C3(C)C)c(OC)c1 [HU-308] | – | – | – | – | – | – | – | – | – | > 10000 | inactive | reduces blood pressure | shows peripheral analgesic activity
